# Experimental data taken from ChEMBL document CHEMBL5528004, “Development of a new class of potent and highly selective G protein-coupled receptor kinase 5 inhibitors and structural insight from crystal structures of inhibitor complexes” (Eur J Med Chem, 2024).
# What was measured:
# [1] = molecular target: T1, Beta-adrenergic receptor kinase 1 (Bos taurus, UniProt P21146); assay: Inhibition of bovine GRK2 expressed in baculovirus infected insect cell using tubulin as substrate incubated for 5 mins in presence of [gamma-32P]-ATP by radiometric assay
# T1 sequence (P21146 whole entry): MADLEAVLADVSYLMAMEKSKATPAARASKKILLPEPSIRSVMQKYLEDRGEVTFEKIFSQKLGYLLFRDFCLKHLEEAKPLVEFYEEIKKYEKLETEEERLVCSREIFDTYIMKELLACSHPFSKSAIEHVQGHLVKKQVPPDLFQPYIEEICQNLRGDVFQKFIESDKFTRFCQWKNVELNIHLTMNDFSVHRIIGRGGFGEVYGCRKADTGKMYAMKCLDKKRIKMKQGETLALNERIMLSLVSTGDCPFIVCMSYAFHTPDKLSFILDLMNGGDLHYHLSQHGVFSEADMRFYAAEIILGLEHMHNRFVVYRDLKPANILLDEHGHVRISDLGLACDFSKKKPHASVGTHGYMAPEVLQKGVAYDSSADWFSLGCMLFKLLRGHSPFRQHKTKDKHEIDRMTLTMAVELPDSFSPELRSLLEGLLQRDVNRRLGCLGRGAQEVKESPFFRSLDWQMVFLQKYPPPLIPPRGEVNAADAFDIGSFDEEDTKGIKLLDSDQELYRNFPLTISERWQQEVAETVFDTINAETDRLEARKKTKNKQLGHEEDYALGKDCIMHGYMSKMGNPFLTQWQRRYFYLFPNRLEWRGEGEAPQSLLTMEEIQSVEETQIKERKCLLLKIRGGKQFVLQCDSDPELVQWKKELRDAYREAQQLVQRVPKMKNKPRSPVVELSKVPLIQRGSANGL
# [2] = molecular target: G protein-coupled receptor kinase 5 (Homo sapiens, UniProt P34947); assay: Inhibition of human GRK5 (1 to 590) expressed in Escherichia coli using tubulin as substrate incubated for 5 mins in presence of [gamma-32P]-ATP by radiometric assay
# G protein-coupled receptor kinase 5, sequence (P34947 whole entry): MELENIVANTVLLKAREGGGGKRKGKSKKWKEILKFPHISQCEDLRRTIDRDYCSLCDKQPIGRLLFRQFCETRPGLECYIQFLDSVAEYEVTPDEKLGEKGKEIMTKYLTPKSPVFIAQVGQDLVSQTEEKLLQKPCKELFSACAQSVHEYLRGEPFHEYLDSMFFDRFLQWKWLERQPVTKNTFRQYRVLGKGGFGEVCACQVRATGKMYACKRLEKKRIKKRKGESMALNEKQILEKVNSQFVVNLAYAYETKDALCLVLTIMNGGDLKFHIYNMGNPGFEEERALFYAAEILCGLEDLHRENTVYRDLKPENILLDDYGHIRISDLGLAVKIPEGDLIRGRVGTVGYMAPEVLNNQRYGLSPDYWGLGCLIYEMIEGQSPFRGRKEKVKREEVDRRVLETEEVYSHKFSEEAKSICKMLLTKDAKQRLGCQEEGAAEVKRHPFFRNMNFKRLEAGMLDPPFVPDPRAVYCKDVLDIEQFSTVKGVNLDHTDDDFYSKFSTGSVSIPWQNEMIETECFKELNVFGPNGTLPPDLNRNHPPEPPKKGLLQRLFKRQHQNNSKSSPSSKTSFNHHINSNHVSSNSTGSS
# [3] = Selectivity index, ratio of IC50 for inhibition of bovine GRK2 to IC50 for inhibition of human GRK5
IC50 [1] [µM],IC50 [2] [µM],Ratio IC50 [3],SMILES
2.2,–,–,Cc1[nH]c(/C=C2\C(=O)Nc3ccc(C(=O)NCc4ccc(F)cc4)cc32)c(C)c1NC(=O)[C@@H](O)c1ccco1
600,–,–,Cc1[nH]c(/C=C2\C(=O)Nc3ccc(C(=O)N[C@H](C)c4ccc(F)cc4)cc32)c(C)c1NC(=O)[C@@H](C)O
200,–,–,CC(=O)C(=O)Nc1c(C)[nH]c(/C=C2\C(=O)Nc3ccc(C(=O)N[C@H](C)c4ccc(F)cc4)cc32)c1C
90,–,–,Cc1[nH]c(/C=C2\C(=O)Nc3ccc(C(=O)N[C@H](C)c4ccc(F)cc4)cc32)c(C)c1NC(=O)[C@@H](O)c1ccccc1
30,–,–,Cc1[nH]c(/C=C2\C(=O)Nc3ccc(C(=O)NCc4ccc(F)cc4)cc32)c(C)c1NC(=O)[C@H](O)c1ccccc1
> 1000,1.1,900,Cc1[nH]c(/C=C2\C(=O)Nc3ccc(C(=O)N[C@H](C)c4ccc(F)cc4)cc32)c(C)c1NC(=O)C(=O)c1ccccc1
100,–,–,Cc1[nH]c(/C=C2\C(=O)Nc3ccc(C(=O)N[C@H](C)c4ccc(F)cc4)cc32)c(C)c1NC(=O)[C@H](C)O

SMILES,IC50 [1] [µM],IC50 [2] [µM],Ratio IC50 [3]
Cc1[nH]c(/C=C2\C(=O)Nc3ccc(C(=O)N[C@H](C)c4ccc(F)cc4)cc32)c(C)c1NC(=O)C(=O)c1ccco1,> 1000,–,–
